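Grown in 96-well plates, cells were treated for 48 hours with each compound at five concentrations. Insufficient inhibition: endpoint recorded as highest concentration tested. At the TGI there is no net growth.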
What was measured:
Test in all cases: inhibition of tumour cell growth, NCI panel, 48 h
[1] = test system: SK-MEL-5 melanoma
[2] = test system: SNB-19 CNS
[3] = test system: MALME-3M melanoma
[4] = test system: NCI-H23 lung
[5] = test system: SF-539 CNS
[6] = test system: SF-295 CNS
[7] = test system: HCC-2998 colon
[8] = test system: MOLT-4 leukemia
[9] = test system: U251 CNS
[10] = test system: CCRF-CEM leukemia
[11] = test system: KM12 colon
[12] = test system: OVCAR-4 ovarian
[13] = test system: DMS 273 small cell lung
[14] = test system: COLO 205 colon
[15] = test system: HOP-92 NSCLC
[16] = test system: EKVX NSCLC

Structure (SMILES) | TGI [1] [µM] | TGI [2] [µM] | TGI [3] [µM] | TGI [4] [µM] | TGI [5] [µM] | TGI [6] [µM] | TGI [7] [µM] | TGI [8] [µM] | TGI [9] [µM] | TGI [10] [µM] | TGI [11] [µM] | TGI [12] [µM] | TGI [13] [µM] | TGI [14] [µM] | TGI [15] [µM] | TGI [16] [µM]
CC(Oc1ccc(OCC2CCCCC2)cc1)C(=O)OCC(=O)c1ccc(-c2ccccc2)cc1 (centres undefined) | > 100 | > 100 | > 100 | > 100 | > 100 | > 100 | > 100 | > 100 | > 100 | > 100 | > 100 | > 100 | > 100 |  |  | 
Cn1c2ccccc2c2ncc3[nH]c4ccccc4c3c21 | 40 | > 100 | > 100 | 43.7 | 32.4 | 47.9 | > 100 | 67.4 | 39.9 | > 100 | 33.9 | 32.1 | 34.7 | 39.1 | 56.8 | 65.6
COC(=O)C(C(=O)Cc1ccccc1[N+](=O)[O-])C(=O)OC | > 100 | > 100 | > 100 | > 100 | > 100 | > 100 | > 100 | > 100 |  | > 100 | > 100 | > 100 | > 100 | > 100 | > 100 | > 100
O=S(=O)(c1ccccc1)N1N=C2c3ccccc3CCC[C@H]2C1c1ccccc1 (some centres undefined) | > 100 | > 100 | > 100 | > 100 | > 100 | > 100 | > 100 | > 100 | > 100 | > 100 | > 100 | > 100 | > 100 | > 100 | > 100 | > 100
COc1cccc(C2CC23C(=O)NC(=O)NC3=O)c1 (centres undefined) | > 100 | > 100 | > 100 | > 100 | > 100 | > 100 | > 100 | > 100 | > 100 | > 100 | > 100 | > 100 | > 100 | > 100 | > 100 | > 100
Cc1nn(C(=O)CC(=O)Nc2ccc(Cl)cc2)c(C)c1N=Nc1ccccc1C(=O)O | > 100 | > 100 | > 100 | > 100 | > 100 | > 100 | > 100 | > 100 | > 100 | > 100 | > 100 | > 100 | > 100 | > 100 |  | > 100
CS(=O)(=O)c1ccc(-c2cc(-c3ccc(S(C)(=O)=O)cc3)[n+](-c3cc(-c4ccccc4)c([O-])c(-c4ccccc4)c3)c(-c3ccc(S(C)(=O)=O)cc3)c2)cc1 |  | > 100 | > 100 | > 100 | > 100 | > 100 | > 100 | > 100 | > 100 |  | > 100 | > 100 | > 100 | > 100 |  | > 100
CC1(C)CC(=O)CC(=Nc2ccc([N+](=O)[O-])cc2)C1 | > 100 |  | > 100 | > 100 |  | > 100 | > 100 | > 100 | 31.7 | 60.8 | > 100 |  | > 100 | > 100 |  | > 100
CN(CCN(C)C(=O)CCn1cc(F)c(=O)[nH]c1=O)C(=O)CCn1cc(F)c(=O)[nH]c1=O | > 100 | > 100 | > 100 | > 100 | > 100 | > 100 | > 100 | > 100 | > 100 | > 100 | > 100 | > 100 | > 100 | > 100 |  | > 100
Cc1ccc(NC(=O)CCc2nnc(N)o2)cc1 | > 100 | > 100 | > 100 | > 100 | > 100 | > 100 | > 100 | > 100 | > 100 | > 100 | > 100 | > 100 | > 100 | > 100 | > 100 | > 100
C=C(C)C1CCC2(C)CC1c1c(c(C)cc3c1[nH]c1ccccc13)O2 (centres undefined) | > 25 | > 25 | > 25 |  | > 25 |  | > 25 | > 25 | > 25 | > 25 | > 25 | > 25 | > 25 | > 25 | > 25 | 
CCOC1c2cc(C(C)C)c(O)c(O)c2[C@@]23CCCC(C)(C)C2C1OC3=O (some centres undefined) | > 100 | > 100 | > 100 | > 100 | > 100 | > 100 | > 100 | > 100 | > 100 | > 100 |  |  | > 100 | > 100 |  | > 100
CCCCC/C=C1\CCC(CN(C)C)C1=O (centres undefined) | 34.3 | 36.9 | 28.7 | 34.6 | 24.1 | 40.9 | 31 | 30.8 | 20.7 | 18.5 | 17 | 42.2 | 34 | 22.6 | 27.1 | > 56.3
COc1ccc(OC)c(/C=C(/C#N)c2ccccc2)c1 | 94.5 | > 100 | > 100 | > 100 | > 100 | > 100 |  | 57.7 | > 100 | 62.1 | > 100 | 81.5 | 24.5 | > 100 | 70.2 | > 100
Cn1cnnc1Sc1c([N+](=O)[O-])ncn1C | > 100 | > 100 | 46.1 | > 100 | > 100 | > 100 | > 100 | > 100 | > 100 | > 100 | > 100 | > 100 | > 100 | > 100 | 91.2 | > 100
O=[N+]([O-])c1ccc(-c2cnc3ccccn23)cc1 | > 100 | > 100 | > 100 | > 100 | > 100 | > 100 |  | > 100 | > 100 | > 100 | > 100 | > 100 | > 100 | > 100 |  | > 100

From PubChem BioAssay (NCI)
